Laboratory results taken from PubChem BioAssay (NCI).
“And” between values parts separate entries of the source, which are not always exact repeats. Equal values may be shown once.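 Test compounds were applied to cells in 96-well plates for 48 hours at 5 doses. At the GI50, growth is halved. TGI: concentration producing complete growth inhibition.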

Tests used:
Test in all cases: inhibition of tumour cell growth, NCI panel, 48 h
[1] = system: MDA-MB-435
[2] = system: OVCAR-4 ovarian
[3] = system: SF-268 CNS
[4] = system: A549 NSCLC
[5] = system: K-562 leukemia
[6] = system: NCI-H522 lung
[7] = system: COLO 205 colon
[8] = system: T-47D breast
[9] = system: SF-295 CNS

With `N#Cc1c(-c2ccccc2)cc(-c2ccc(Cl)cc2)[nH]c1=S` the TGI [1] was 43.1 µM, the TGI [2] was > 100 µM and the TGI [3] was > 100 µM. For the same compound, the TGI [4] was > 100 µM, the TGI [5] was > 100 µM and the TGI [6] was 70.5 µM. For the same compound, the TGI [7] was 71.1 µM, the TGI [8] was > 100 µM and the TGI [9] was 83.7 µM.
`[O-]/[N+](=C\c1ccccc1OC(=S)S)c1ccc(Cl)cc1` was tested, and the TGI [1] was 47.3 µM, the TGI [2] was 37 µM and the TGI [3] was 77.7 µM. For the same compound, the TGI [4] was > 100 µM, the TGI [5] was > 100 µM and the TGI [6] was 52.8 µM. For the same compound, the TGI [7] was 26.7 µM, the TGI [8] was 88.2 µM and the TGI [9] was > 100 µM.
`C=Cc1ccccc1C1(O)C=CC(OC)(OC)C=C1` gave a TGI [1] of 14 µM, a TGI [2] of 37.2 µM and a TGI [3] of 33.9 µM. For the same compound, the TGI [4] was 36.9 µM, the TGI [5] was > 100 µM and the TGI [6] was 23.9 µM. The TGI [7] was 25.9 µM, the TGI [8] was > 100 µM and the TGI [9] was 32.5 µM.
`Cc1c2c(OCC3CCCCO3)nn(C)c(=O)c2c(C)n1-c1ccccc1` (stereo not given) was tested, and the TGI [1] was 37.4 µM, the TGI [2] was 32.8 µM and the TGI [3] was 30.7 µM. The TGI [4] was 33.7 µM, the TGI [5] was > 100 µM and the TGI [6] was 34.9 µM. The TGI [7] was 33.3 µM, the TGI [8] was 70.3 µM and the TGI [9] was 31.4 µM.
In the case of `NC(=O)N/N=C1\CC2C3CC4C2C4C13` (stereo not given), the TGI [1] is reported as > 100 µM, the TGI [2] is reported as > 100 µM and the TGI [3] is reported as > 100 µM. For the same compound, the TGI [4] was > 100 µM, the TGI [5] was > 100 µM and the TGI [6] was > 100 µM. The TGI [7] was > 100 µM, the TGI [8] was > 100 µM and the TGI [9] was > 100 µM.
In the case of `COc1cc(/C=C/C=C2\CC/C(=C\C=C\c3ccc(O)c(OC)c3)C2=O)ccc1O`, the TGI [1] is reported as > 100 µM, the TGI [2] is reported as > 100 µM and the TGI [3] is reported as > 100 µM. For the same compound, the TGI [4] was > 100 µM, the TGI [5] was 52.7 µM and the TGI [6] was 25.9 µM. For the same compound, the TGI [7] was > 100 µM, the TGI [8] was > 100 µM and the TGI [9] was > 100 µM.
Work on `CCCCCCCCCc1nn2c(Cc3ccccc3)nnc2s1` yielded a TGI [1] of 62 µM, a TGI [2] of 54.6 µM and a TGI [3] of 32.4 µM. For the same compound, the TGI [4] was 41.5 µM, the TGI [5] was > 100 µM and the TGI [6] was 27 µM. It also gave a TGI [7] of 41 µM, a TGI [8] of 97.5 µM and a TGI [9] of 45.6 µM.
`CCOC(=O)/C=C(\C(=O)OCC)n1ccc(=O)n(Cc2cn(COCCOC(C)=O)nn2)c1=O` was tested, and the TGI [1] was 37 µM, the TGI [2] was 38.3 µM and the TGI [3] was > 57.6 µM. The TGI [4] was > 100 µM, the TGI [5] was > 100 µM and the TGI [6] was 8.34 µM. The TGI [7] was 24.2 µM, the TGI [8] was 55.8 µM and the TGI [9] was > 100 µM.
`C=C(CN(C)C)C(=O)c1ccccc1[N+](=O)[O-]` was tested, and the GI50 [1] was 3.86 µM, the TGI [1] was 29.7 µM and 15.9 µM and the TGI [2] was 41.1 µM. For the same compound, the GI50 [3] was 20.7 µM, the TGI [3] was 51.4 µM and 58.3 µM and the GI50 [4] was 22.2 µM. The TGI [4] was > 70.5 µM and 41.1 µM, the GI50 [5] was 3.38 µM and the TGI [5] was 27.7 µM and 12.9 µM. The TGI [6] was 7.74 µM, the TGI [7] was 21.2 µM and the GI50 [8] was 5.68 µM. For the same compound, the TGI [8] was 18.6 µM and 28.6 µM, the GI50 [9] was 17.7 µM and the TGI [9] was 50.7 µM and 32.9 µM.
For `COc1cc2c(cc1OC)-c1cc3ccccc3c(=O)n1CC2`, the TGI [1] was > 100 µM, the TGI [2] was > 100 µM and the TGI [3] was > 100 µM. For the same compound, the TGI [4] was > 100 µM, the TGI [5] was > 100 µM and the TGI [6] was 40 µM. The TGI [7] was > 100 µM, the TGI [8] was 81.5 µM and the TGI [9] was 62.1 µM.
`O=C1c2ccccc2NC(=S)[C@@H]2CCCN12` was tested, and the TGI [1] was > 100 µM, the TGI [2] was > 100 µM and the TGI [3] was > 100 µM. For the same compound, the TGI [4] was > 100 µM, the TGI [5] was > 100 µM and the TGI [6] was > 100 µM. For the same compound, the TGI [7] was > 100 µM, the TGI [8] was > 100 µM and the TGI [9] was > 100 µM.
In the case of `COc1ccc(CC2COc3cc(O)cc(O)c3C2=O)cc1O` (stereo not given), the TGI [1] is reported as 3.68 µM, the TGI [2] is reported as > 100 µM and the TGI [3] is reported as > 100 µM. For the same compound, the TGI [4] was > 100 µM, the TGI [5] was > 100 µM and the TGI [6] was > 100 µM. The TGI [7] was 43.8 µM, the TGI [8] was > 100 µM and the TGI [9] was 24.1 µM.
`CC(=O)c1ccc2c(c1)CC1(C2)Cc2ccccc2C1=O` (stereo not given) was tested, and the TGI [1] was > 100 µM, the TGI [2] was > 100 µM and the TGI [3] was > 100 µM. The TGI [4] was > 100 µM, the TGI [5] was > 100 µM and the TGI [6] was 99.6 µM. The TGI [7] was > 100 µM, the TGI [8] was > 100 µM and the TGI [9] was > 100 µM.
In the case of `COC1CC(OC2CCC3(C)C(=CCC4C3C(OC(C)=O)C(OC(=O)CC(C)C)C3(C)C(C(C)=O)CCC43O)C2)OC(C)C1OC1CC(OC)C(OC2CC(OC)C(OC3OC(C)C(OC4OC(CO)C(O)C(O)C4O)C(OC)C3O)C(C)O2)C(C)O1` (stereo not given), the TGI [1] is reported as > 75 µM, the TGI [2] is reported as > 75 µM and the TGI [3] is reported as > 75 µM. The TGI [4] was > 75 µM, the TGI [5] was > 75 µM and the TGI [6] was > 75 µM. The TGI [7] was > 75 µM, the TGI [8] was > 75 µM and the TGI [9] was > 75 µM.
Work on `COc1nc(C#CC(C)(C)C)nc(OC)n1` yielded a TGI [1] of 84.5 µM, a TGI [2] of 35.5 µM and a TGI [3] of 78.6 µM. The TGI [4] was > 100 µM, the TGI [5] was > 100 µM and the TGI [6] was 49.3 µM. The TGI [7] was > 100 µM, the TGI [8] was > 100 µM and the TGI [9] was > 100 µM.
`CC12CCCC3(CC(=O)C(C)(C)C3C(=O)C1)C2` (stereo not given) was tested, and the TGI [1] was > 100 µM, the TGI [2] was > 100 µM and the TGI [3] was > 100 µM. The TGI [4] was > 100 µM, the TGI [5] was > 100 µM and the TGI [6] was > 100 µM. For the same compound, the TGI [7] was > 100 µM, the TGI [8] was > 100 µM and the TGI [9] was > 100 µM.
For `C[n+]1c(-c2ccc(/C=C/C=N\NC(=O)c3ccc(C(=O)N/N=C\C=C\c4ccc(-c5cn6ccccc6[n+]5C)cc4)cc3)cc2)cn2ccccc21`, the TGI [1] was > 100 µM, the TGI [2] was > 100 µM and the TGI [3] was > 100 µM. For the same compound, the TGI [4] was > 100 µM, the TGI [5] was > 51.2 µM and the TGI [6] was > 100 µM. For the same compound, the TGI [7] was > 100 µM, the TGI [8] was > 80.2 µM and the TGI [9] was > 100 µM.
With `O=C(c1ccncc1)C1C(=O)c2ccccc2C1C1(O)c2ccccc2CC1C(O)c1ccncc1` (stereo not given) the TGI [1] was 47.9 µM, the TGI [2] was > 100 µM and the TGI [3] was > 100 µM. For the same compound, the TGI [4] was > 100 µM, the TGI [5] was > 100 µM and the TGI [6] was > 100 µM. The TGI [7] was > 100 µM, the TGI [8] was > 100 µM and the TGI [9] was > 100 µM.
For `O=c1cc(-c2ccccc2)oc2c(-c3cc(Cl)cc4c(=O)cc(-c5ccccc5)oc34)cc(Cl)cc12`, the TGI [1] was > 100 µM, the TGI [2] was > 100 µM and the TGI [3] was > 100 µM. The TGI [4] was > 100 µM, the TGI [5] was > 100 µM and the TGI [6] was 55.3 µM. The TGI [7] was > 100 µM, the TGI [8] was 75.6 µM and the TGI [9] was > 100 µM.
With `S=c1cc(-c2ccc3c(c2)OCO3)s[nH]1` the TGI [1] was > 100 µM, the TGI [2] was > 100 µM and the TGI [3] was > 100 µM. For the same compound, the TGI [4] was > 100 µM, the TGI [5] was > 100 µM and the TGI [6] was 54.6 µM. For the same compound, the TGI [7] was > 100 µM, the TGI [8] was > 100 µM and the TGI [9] was > 100 µM.
In the case of `CCOP(=O)(/C=C\n1ccc(N)nc1=O)OCC`, the TGI [1] is reported as > 100 µM, the TGI [2] is reported as > 100 µM and the TGI [3] is reported as > 100 µM. The TGI [4] was > 100 µM, the TGI [5] was > 100 µM and the TGI [6] was > 100 µM. For the same compound, the TGI [7] was > 100 µM, the TGI [8] was > 100 µM and the TGI [9] was > 100 µM.
With `O=c1[nH]c(Nc2cccc(CO)c2)nc2nc[nH]c12` the TGI [1] was > 100 µM, the TGI [2] was > 100 µM and the TGI [3] was > 100 µM. For the same compound, the TGI [4] was > 100 µM, the TGI [5] was > 100 µM and the TGI [6] was > 100 µM. For the same compound, the TGI [7] was > 100 µM, the TGI [8] was > 100 µM and the TGI [9] was > 100 µM.
For `Cc1ccc(/C=C2\Cc3c(C)cc(C)cc3C2=O)c(C(=O)O)c1`, the TGI [1] was 88.1 µM, the TGI [2] was > 100 µM and the TGI [3] was > 100 µM. The TGI [4] was > 100 µM, the TGI [5] was > 100 µM and the TGI [6] was > 100 µM. For the same compound, the TGI [7] was 98.2 µM, the TGI [8] was > 100 µM and the TGI [9] was > 100 µM.
With `CCOC(=O)c1cn2c(n1)sc1cc(Cl)cc(Cl)c12` the TGI [1] was > 100 µM, the TGI [2] was > 100 µM and the TGI [3] was > 100 µM. For the same compound, the TGI [4] was > 100 µM, the TGI [5] was > 100 µM and the TGI [6] was > 100 µM. For the same compound, the TGI [7] was > 100 µM, the TGI [8] was > 100 µM and the TGI [9] was > 100 µM.
Work on `COc1c(O)c2c(=O)cc(OC)c3c4c(OC)cc(=O)c5c(O)c(OC)c6c(c(c1C(C(C)O)C6C(C)O)c23)c54` (stereo not given) yielded a TGI [1] of 5.44 µM, a TGI [2] of 4.96 µM and a TGI [3] of 15 µM. It also gave a TGI [4] of 2.66 µM, a TGI [5] of 1.66 µM and a TGI [6] of 3.82 µM. For the same compound, the TGI [7] was 4.22 µM, the TGI [8] was 8.33 µM and the TGI [9] was 1.97 µM.
For `COC(=O)C1(Cc2ccc3c(c2)CCC3)Cc2ccccc2C1`, the TGI [1] was > 100 µM, the TGI [2] was 62.8 µM and the TGI [3] was > 100 µM. For the same compound, the TGI [4] was > 100 µM, the TGI [5] was 51.3 µM and the TGI [6] was 77.1 µM. The TGI [7] was 67.8 µM, the TGI [8] was > 100 µM and the TGI [9] was > 100 µM.
